Source: patent publication US20240139125A1 (INDUSTRIAL COOPERATION FOUNDATION JEONBUK NATIONAL …, priority 2020, published 2024)
Structures can show the parent of a compound that is named as a salt.

Key:
[1] = Cell viability for BIA and analogues, HT1080 cell line; format: cell-based; conditions: human, HT1080 fibrosarcoma cells; for viability at 5 µM: HT1080, 5 uM; for viability at 10 µM: HT1080, 10 uM
Procedure: HT1080 MDA-MB-231, SKBR3 and MCF7 cell lines were cultured in a 37° C., 5% CO2 incubator in a medium with 10% Fetal Bovine Serum, 1% penicillin and streptomycin (100 U) added to DMEM.
(§1) The compound prepared in Example 15 was treated with HT1080 fibrosarcoma cell line at 5 μM and 10 μM and cell viability was measured. In addition, the compound prepared in Example 15 on the DU145 prostate cancer cell line was treated with 10 μM, 20 μM, and 30 μM and cell viability was measured (see Table 2, Table 3).

[2] = Cell viability for BIA and analogues, DU145 cell line; format: cell-based; conditions: human; for viability at 10 µM: DU145, 10 uM; for viability at 20 µM: DU145, 20 uM; for viability: DU145, 50 rpm
Procedure: as §1

Structure (SMILES) | viability at 5 µM [1] [%] | viability at 10 µM [1] [%] | viability at 10 µM [2] [%] | viability at 20 µM [2] [%] | viability [2] [%]
Nc1ccccc1-c1cc(-c2cccc(C(F)(F)F)c2)ncn1 | 99.6 | 97.3 | 95.3 | 87.8 | 74.8
Nc1ccccc1C(=O)/C=C/c1ccccc1 [GM-90130, (E)-1-(2-aminophenyl)-3-phenylprop-2-en-1-one] | 99.5 | 31.7 | 78.7 | 79.4 | 48.3
COc1cccc(/C=C/C(=O)c2ccccc2N)c1 [GM-90131, (E)-1-(2-aminophenyl)-3-(3-methoxyphenyl)prop-2-en-1-one] | 101 | 37.4 | 81.5 | 74 | 33.2
Nc1ccccc1C(=O)/C=C/c1cccc(Br)c1 [GM-90132, (E)-1-(2-aminophenyl)-3-(3-bromophenyl)prop-2-en-1-one] | 100 | 30.9 | 81.5 | 71.2 | 19.9
Nc1ccccc1C(=O)/C=C/c1ccc([N+](=O)[O-])cc1 [GM-90133, (E)-1-(2-aminophenyl)-3-(4-nitrophenyl)prop-2-en-1-one] | 101 | 54.9 | 50.5 | 35.2 | 26.8
COc1ccccc1C(=O)/C=C/c1cccc([N+](=O)[O-])c1 [GM-90134, (E)-1-(2-methoxyphenyl)-3-(3-nitrophenyl)prop-2-en-1-one] | 99.1 | 96.6 | 31.5 | 25.4 | 22.8
O=C(/C=C/c1cccc([N+](=O)[O-])c1)c1ccccc1O [GM-90135, (E)-1-(2-hydroxyphenyl)-3-(3-nitrophenyl)prop-2-en-1-one] | 99.9 | 96.8 | 88.5 | 87.3 | 64.5
Nc1ccccc1C(=O)/C=C/c1ccc(OC(F)(F)F)cc1 [GM-90222, (E)-1-(2-aminophenyl)-3-(4-(trifluoromethoxy)phenyl)prop-2-en-1-one] | 109 | 92 | 40.7 | 31.3 | 28.9
Nc1ccccc1C(=O)/C=C/c1ccc(F)cc1F [GM-90223, (E)-1-(2-aminophenyl)-3-(2,4-difluorophenyl)prop-2-en-1-one] | 93.8 | 86 | 26.5 | 26.3 | 21.1
CCOc1cc(F)ccc1/C=C/C(=O)c1ccccc1N [GM-90224, (E)-1-(2-aminophenyl)-3-(2-ethoxy-4-fluorophenyl)prop-2-en-1-one] | 108 | 99.7 | 90.5 | 90 | 75.8
Nc1ccccc1C(=O)/C=C/c1ccc2ccccc2c1 [GM-90225, (E)-1-(2-aminophenyl)-3-(naphthalen-2-yl)prop-2-en-1-one] | 70.5 | 43.5 | 87.4 | 79.4 | 71.2
Nc1ccccc1C(=O)/C=C/c1ccc(C(F)(F)F)cc1 [GM-90226, (E)-1-(2-aminophenyl)-3-(4-(trifluoromethyl)phenyl)prop-2-en-1-one] | 83.9 | 15.4 | 68.1 | 46.8 | 11.8
Cc1ccc(/C=C/C(=O)c2ccccc2N)cc1 [GM-90227, (E)-1-(2-aminophenyl)-3-(p-tolyl)prop-2-en-1-one] | 108 | 96.3 | 43.3 | 36.1 | 28.2
CCOc1ccc([N+](=O)[O-])cc1/C=C/C(=O)c1ccccc1N [GM-90229, (E)-1-(2-aminophenyl)-3-(2-ethoxy-5-nitrophenyl)prop-2-en-1-one] | 64.4 | 15.7 | 53.1 | 40.5 | 21.1
CCOc1ccc([N+](=O)[O-])cc1C(O)CC(=O)c1ccccc1N (centres unmarked) [GM-90230, 1-(2-aminophenyl)-3-(2-ethoxy-5-nitrophenyl)-3-hydroxypropan-1-one] | 108 | 98.8 | 66.3 | 29.1 | 29.3
CC(C)(C)c1ccc(/C=C/C(=O)c2ccccc2N)cc1 [GM-90243, (E)-1-(2-aminophenyl)-3-(4-(tert-butyl)phenyl)prop-2-en-1-one] | 66.8 | 39.2 | 31.8 | 28.2 | 14.3

Structure (SMILES) | viability at 5 µM [1] [%] | viability at 10 µM [1] [%] | viability at 10 µM [2] [%] | viability at 20 µM [2] [%] | viability [2] [%]
COc1cc(N)c(C(=O)/C=C/c2cccc(Br)c2)cc1OC [GM-90255, (E)-1-(2-amino-4,5-dimethoxyphenyl)-3-(3-bromophenyl)prop-2-en-1-one] | 88.1 | 33.4 | 88.7 | 70.2 | 66.4
COc1cccc(/C=C/C(=O)c2cc(OC)c(OC)cc2N)c1 [GM-90256, (E)-1-(2-amino-4,5-dimethoxyphenyl)-3-(3-methoxyphenyl)prop-2-en-1-one] | 82.4 | 46.3 | 76.3 | 60.2 | 54.9
Nc1ccccc1C(=O)/C=C/c1cc(O)cc(Br)c1 [GM-90281, (E)-1-(2-aminophenyl)-3-(3-bromo-5-hydroxyphenyl)prop-2-en-1-one] | 11.4 | 11.1 | 77.4 | 76.4 | 67
N#Cc1cccc(/C=C/C(=O)c2ccccc2N)c1 [GM-90282, (E)-3-(3-(2-aminophenyl)-3-oxoprop-1-en-1-yl)benzonitrile] | 12.2 | 7.14 | 72.9 | 53.4 | 9.57
Nc1ccccc1C(=O)/C=C/c1cccc(C(F)(F)F)c1 [GM-90283, (E)-1-(2-aminophenyl)-3-(3-(trifluoromethyl)phenyl)prop-2-en-1-one] | 18.1 | 11.9 | 59.9 | 33.1 | 22.9
Cc1cccc(/C=C/C(=O)c2ccccc2N)c1 [GM-90284, (E)-1-(2-aminophenyl)-3-(m-tolyl)prop-2-en-1-one] | 86.4 | 18.8 | 88.4 | 81 | 79
Nc1ccccc1C(=O)/C=C/c1cccnc1 [GM-90285, (E)-1-(2-aminophenyl)-3-(pyridin-3-yl)prop-2-en-1-one] | 71.5 | 8.35 | 83.5 | 82.8 | 78.8
COc1ccc(C(=O)/C=C/c2cccc([N+](=O)[O-])c2)c(N)c1 [GM-90297, (E)-1-(2-amino-4-methoxyphenyl)-3-(3-nitrophenyl)prop-2-en-1-one] | 93.3 | 18.2 | 85.7 | 87.2 | 83
CNC(=O)c1cccc(/C=C/C(=O)c2ccccc2N)c1 [GM-90300, (E)-3-(3-(2-aminophenyl)-3-oxoprop-1-en-1-yl)-N-methyl benzamide] | 99.5 | 23.4 | 62.6 | 58.5 | 54.5
Nc1cccc(/C=C/C(=O)c2ccccc2N)c1 [GM-90315, (E)-1-(2-aminophenyl)-3-(3-aminophenyl)prop-2-en-1-one Hydrochloride] | 41.1 | 11.2 | 98 | 97.9 | 88.9
Nc1ccccc1C(=O)/C=C/c1cc(F)c(O)c(F)c1 [GM-90316, (E)-1-(2-aminophenyl)-3-(3,5-difluoro-4-hydroxyphenyl)prop-2-en-1-one] | 101 | 67.8 | 87.4 | 60 | 38.4
Nc1ccccc1C(=O)/C=C/c1cccc(Cl)c1 [GM-90317, (E)-1-(2-aminophenyl)-3-(3-chlorophenyl)prop-2-en-1-one] | 46.8 | 14.4 | 32.4 | 28.1 | 11.9
COc1cc(N)c(C(=O)/C=C/c2cccc(C#N)c2)cc1OC [GM-90319, (E)-3-(3-(2-amino-4,5-dimethoxyphenyl)-3-oxoprop-1-en-1-yl)benzonitrile] | 46.6 | 9.94 | 110 | 88.1 | 85.8
COc1cc(N)c(C(=O)/C=C/c2cccc(C(F)(F)F)c2)cc1OC [GM-90320, (E)-1-(2-amino-4,5-dimethoxyphenyl)-3-(3-(trifluoromethyl)phenyl)prop-2-en-1-one] | 94.5 | 62.7 | 89.1 | 89.1 | 82.4
COc1cc(N)c(C(=O)/C=C/c2cc(O)cc(Br)c2)cc1OC [GM-90321, (E)-1-(2-amino-4,5-dimethoxyphenyl)-3-(3-bromo-5-hydroxyphenyl)prop-2-en-1-one] | 61.2 | 21.2 | 83.6 | 81.8 | 84.8
